Measurements as given in ChEMBL document CHEMBL1201862, “PubChem BioAssay data set” (2004).
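In this assay, cells in 96-well plates receive the compound at five concentrations for 48 hours. Endpoints are linearly interpolated between the surrounding concentrations. Here, GI50 denotes the concentration required for 50% inhibition of growth.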 Calls of active or inactive are those of the source. Cut-off read from the data, not from the text of the source: active = GI50 up to about 1.1 µM and inactive = higher.

Columns and labels:
Test in all cases: NCI anticancer screen, dose series, 48 h
M14 = test system: M14
A549 = test system: A549
SNB-19 = test system: SNB-19
HT-29 = test system: HT-29
OVCAR-8 = test system: OVCAR-8
SR = test system: SR
SNB-75 = test system: SNB-75
CAKI-1 = test system: CAKI-1
K562 = test system: K562
HOP-62 = test system: HOP-62
HL-60 = test system: HL-60
SK-MEL-2 = test system: SK-MEL-2
SF-539 = test system: SF-539
KM-20L2 = test system: KM-20L2
HCT-116 = test system: HCT-116
OVCAR-3 = test system: OVCAR-3
CCRF-CEM = test system: CCRF-CEM
SNB-78 = test system: SNB-78
M19-MEL = test system: M19-MEL
NCI-H226 = test system: NCI-H226
DLD-1 = test system: DLD-1
XF498 = test system: XF498
A498 = test system: A498
TK-10 = test system: TK-10
NCI-H460 = test system: NCI-H460
NCI-H522 = test system: NCI-H522
DMS-114 = test system: DMS-114
NCI-H23 = test system: NCI-H23
DMS-273 = test system: DMS-273
EKVX = test system: EKVX
IGROV-1 = test system: IGROV-1
786-0 = test system: 786-0
HOP-92 = test system: HOP-92
ACHN = test system: ACHN
UO-31 = test system: UO-31
KM12 = test system: KM12
HCT-15 = test system: HCT-15
U-251 = test system: U-251
RXF 393 = test system: RXF 393
HCC 2998 = test system: HCC 2998
RXF 631 = test system: RXF 631
SN12C = test system: SN12C
SK-OV-3 = test system: SK-OV-3
SF-268 = test system: SF-268
HOP-18 = test system: HOP-18
UACC-257 = test system: UACC-257
LXFL 529 = test system: LXFL 529
SW-620 = test system: SW-620
SK-MEL-5 = test system: SK-MEL-5
OVCAR-4 = test system: OVCAR-4
RPMI-8226 = test system: RPMI-8226
COLO 205 = test system: COLO 205
SF-295 = test system: SF-295
UACC-62 = test system: UACC-62
MOLT-4 = test system: MOLT-4
LOX IMVI = test system: LOX IMVI
OVCAR-5 = test system: OVCAR-5
SK-MEL-28 = test system: SK-MEL-28
Malme-3M = test system: Malme-3M

COc1ccc(/C=C/c2cc(OC)cc(OC)c2)cc1 [TRISMETHOXYRESVERATROL]
GI50 (M14): 6.53 µM (inactive)
GI50 (A549): 6.32 µM (inactive)
GI50 (SNB-19): 20.7 µM (inactive)
GI50 (HT-29): 3.88 µM (inactive)
GI50 (OVCAR-8): 22.1 µM (inactive)
GI50 (SR): 4.24 µM (inactive)
GI50 (SNB-75): 4.82 µM (inactive)
GI50 (CAKI-1): 4.6 µM (inactive)
GI50 (K562): 4.33 µM (inactive)
GI50 (HOP-62): 4.92 µM (inactive)
GI50 (HL-60): 2.56 µM (inactive)
GI50 (SK-MEL-2): 6.07 µM (inactive)
GI50 (SF-539): 3.54 µM (inactive)
GI50 (KM-20L2): 3.15 µM (inactive)
GI50 (HCT-116): 4.17 µM (inactive)
GI50 (OVCAR-3): 3.3 µM (inactive)
GI50 (CCRF-CEM): 3.97 µM (inactive)
GI50 (SNB-78): 3.98 µM (inactive)
GI50 (M19-MEL): 6.31 µM (inactive)
GI50 (NCI-H226): 5.43 µM (inactive)
GI50 (DLD-1): 5.28 µM (inactive)
GI50 (XF498): 8.43 µM (inactive)
GI50 (A498): 6.18 µM (inactive)
GI50 (TK-10): 12.6 µM (inactive)
GI50 (NCI-H460): 3.73 µM (inactive)
GI50 (NCI-H522): 2.68 µM (inactive)
GI50 (DMS-114): 3.5 µM (inactive)
GI50 (NCI-H23): 6.98 µM (inactive)
GI50 (DMS-273): 3.79 µM (inactive)
GI50 (EKVX): > 22.4 µM (inactive)
GI50 (IGROV-1): 6.44 µM (inactive)
GI50 (786-0): 9.66 µM (inactive)
GI50 (HOP-92): 8.07 µM (inactive)
GI50 (ACHN): 7.08 µM (inactive)
GI50 (UO-31): 18.2 µM (inactive)
GI50 (KM12): 4.17 µM (inactive)
GI50 (HCT-15): 4.57 µM
GI50 (U-251): 4.06 µM (inactive)
GI50 (RXF 393): 3.05 µM (inactive)
GI50 (HCC 2998): 9.79 µM (inactive)
GI50 (RXF 631): 4.2 µM (inactive)
GI50 (SN12C): 9.95 µM (inactive)
GI50 (SK-OV-3): 4.14 µM (inactive)
GI50 (SF-268): 7.93 µM (inactive)
GI50 (HOP-18): > 24.3 µM (inactive)
GI50 (UACC-257): 4.62 µM (inactive)
GI50 (LXFL 529): 4.86 µM (inactive)
GI50 (SW-620): 4.98 µM (inactive)
GI50 (SK-MEL-5): 4.23 µM (inactive)
GI50 (OVCAR-4): 18.9 µM (inactive)
GI50 (RPMI-8226): 3.56 µM (inactive)
GI50 (COLO 205): 3.41 µM (inactive)
GI50 (SF-295): 4.38 µM (inactive)
GI50 (UACC-62): 3.56 µM (inactive)
GI50 (MOLT-4): 4.51 µM (inactive)
GI50 (LOX IMVI): 6.7 µM (inactive)
GI50 (OVCAR-5): 14 µM (inactive)
GI50 (SK-MEL-28): 3.82 µM (inactive)
GI50 (Malme-3M): 6.12 µM (inactive)
